# Reference: patent EP0348399B1, “SORBIN AND PEPTIDE DERIVATIVES WHICH INCREASE ABORPTION BY THE MUCOUS MEMBRANES” (INSTITUT NATIONAL DE LA SANTE ET DE LA RECHERCHE MEDICALE …, priority 1988, dated 1992)
# How the values were obtained:
# [1] = Arterial blood pressure measured by carotid catheterisation; format: in vivo; settings: measured by catheterisation of the carotid, result in words
# rat = experiment: Water and electrolyte movements in ligated intestinal loops of the anaesthetised rat, peptides given by intravenous infusion; format: in vivo; settings: rat duodenal loop, i.v. infusion, dose 50 pmol/100g, 1 h contact; controls (TEMOINS) = 0; (-) absorption, (+) secretion; mean, groups of 8 or more
# Protocol: Chez le rat privé d'aliment depuis 45 heures mais recevant de l'eau à volonté, une anesthésie est assurée par le pentobarbital sodique, un cathéter est placé sur une jugulaire, trois anses duodénale, jéjunale et iléale sont constituées entre deux ligatures. Un ml de solution test contenant 70 mM de NaCl, 5,2 mM de KCl, […] de CaCl₂, 10 mM de CO₃Na ET 136 mM de mannitol est instillé dans chaque anse, le PEG 4000 marqué au ³H est utilisé comme marqueur non absorbable, le ²²Na ou le ³⁶Cl comme marqueurs des flux bidirectionnels de sodium ou de chlore. La sorbine ou les peptides de synthèse sont administrés par voie veineuse dans du NaCl à 0,9%, à un débit de 3 ml/h. Après une heure de contact, le liquide restant dans la lumière de l'anse est collecté, le volume et les concentrations de Na, Ca, K, Cl et HCO₃ ainsi que la radioactivité liée au tritium, au chlore ou au sodium sont mesurés.
# L'absorption est indiquée par un signe (-), la sécrétion par un signe (+). les résultats concernent des groupes de 8 animaux ou plus M ± SEM ^. P<0.05 ^..P<0.01
Compound,tension artérielle [1],Cl (rat),Eau (rat),Na (rat)
"CC[C@H](C)[C@H](NC(=O)[C@H](Cc1ccc(O)cc1)NC(=O)[C@@H](NC(=O)[C@H](CCCNC(=N)N)NC(=O)[C@@H](N)CC(=O)O)C(C)C)C(=O)N[C@@H](Cc1cnc[nH]1)C(=O)N1CCC[C@H]1C(=O)N[C@@H](Cc1ccccc1)C(=O)O [ANGIOTENSINE II, angiotensine II]",augmentation de la tension artérielle,–,–,–
HEPTAPEPTIDE,–,"-36,1 µeq","-0,20 ml","-30,7 µeq"
